The numbers were not newly measured in patent US20020015956A1, “Compositions and methods for the identification, assessment, prevention, and therapy of human cancers” (priority 2000, published 2002), which cites them from elsewhere.

For the data set, the system named is tumor. As to conditions: animal models.

Turning to `CC(=O)O[C@@]12CO[C@@H]1C[C@H](O)[C@@]1(C)C(=O)[C@H](O)C3=C(C)[C@@H](OC(=O)[C@H](O)[C@@H](NC(=O)OC(C)(C)C)c4ccccc4)C[C@@](O)([C@@H](OC(=O)c4ccccc4)[C@H]21)C3(C)C` [Taxotere, docetaxel], the anti-tumor activity entry was “good anti-tumor activity”.
